# Assay results from patent US6737383B1, “Herbicidal oxadiazolidines” (priority 1999, dated 2004).
# Legend:
# sugar beet = test: Test B pre/postemergence sugar beet; type: in vivo, Beta vulgaris
# Procedure, shortened: (§1)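 Response is a visual 0-to-10 score relative to untreated plants, where 0 means no effect and 10 means complete control, taken twelve to sixteen days after application. Treatments went onto soil at planting and onto foliage of 1- to 4-leaf plants, using a surfactant-containing non-phytotoxic solvent.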
# corn = test: Test B pre/postemergence corn; type: in vivo, Zea mays
# Procedure, shortened: as §1
# rice = test: Test B flood test rice; type: in vivo, Oryza sativa
# Procedure, shortened: (§2)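 Each value is a visual injury score relative to controls, with 10 meaning complete control and 0 no effect. Evaluation took place twelve to sixteen days after the 2-leaf-stage plants were treated and kept in the greenhouse.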
# duck salad = test: Test B flood test duck salad; type: in vivo, Heteranthera limosa
# Procedure, shortened: as §2
# wheat = test: Test B pre/postemergence wheat; type: in vivo, Triticum aestivum
# Procedure, shortened: as §1
# blackgrass = test: Test B pre/postemergence blackgrass; type: in vivo, Alopecurus myosuroides
# Procedure, shortened: as §1
# velvetleaf = test: Test B pre/postemergence velvetleaf; type: in vivo, Abutilon theophrasti
# Procedure, shortened: as §1
# bamyardgrass = test: Test B flood test barnyardgrass; type: in vivo, Echinochloa crus-galli
# Procedure, shortened: as §2
# purple nutsedge = test: Test B pre/postemergence purple nutsedge; type: in vivo, Cyperus rotundus
# Procedure, shortened: as §1
# crabgrass = test: Test B pre/postemergence crabgrass; type: in vivo, Digitaria sanguinalis
# Procedure, shortened: as §1
# wild oat = test: Test B pre/postemergence wild oat; type: in vivo, Avena fatua
# Procedure, shortened: as §1
# smallflower flatsedge = test: Test B flood test smallflower flatsedge; type: in vivo, Cyperus difformis
# Procedure, shortened: as §2
# cocklebur = test: Test B pre/postemergence cocklebur; type: in vivo, Xanthium strumarium
# Procedure, shortened: as §1
# morningglory = test: Test B pre/postemergence morningglory; type: in vivo, Ipomoea hederacea
# Procedure, shortened: as §1
# rape = test: Test B pre/postemergence rape; type: in vivo, Brassica napus
# Procedure, shortened: as §1
# pigweed = test: Test B pre/postemergence pigweed; type: in vivo, Amaranthus retroflexus
# Procedure, shortened: as §1
# [1] = Postemergence, Rate 250 g/ha, scale 0 to 10
# [2] = Postemergence, Rate 500 g/ha, scale of 0 to 10 where 0 is no effect and 10 is complete control
# [3] = Preemergence, Rate 62 g/ha, scale 0 to 10 (0 no effect, 10 complete control)
# [4] = Preemergence, Rate 125 g/ha, scale of 0 to 10 where 0 is no effect and 10 is complete control
# [5] = Preemergence, Rate 250 g/ha, scale 0 to 10, 0 is no effect, 10 is complete control
# [6] = Preemergence, Rate 500 g/ha, scale 0 to 10, 0 is no effect, 10 is complete control
# [7] = Rate 125 g/ha, Postemergence, scale 0 to 10, 0 is no effect, 10 is complete control
# [8] = Rate 62 g/ha, Postemergence, scale of 0 to 10 where 0 is no effect and 10 is complete control
# [9] = Postemergence block (flood test species), Rate 250 g/ha, scale 0 to 10
# [10] = Postemergence section (flood test species), Rate 500 g/ha, scale of 0 to 10 where 0 is no effect and 10 is complete control
# [11] = Rate 125 g/ha, Postemergence section (flood test species), scale 0 to 10, 0 is no effect, 10 is complete control
# [12] = Rate 62 g/ha, Postemergence (flood test species), scale of 0 to 10 where 0 is no effect and 10 is complete control
smiles,measurement,setting,value
CC(C)N(C(=O)n1oc(=O)n(CC#N)c1=O)c1ccccc1 [Compound 434],Sugarbeets plant response rating,sugar beet; [1],0
same,Sugarbeets plant response rating,sugar beet; [2],0
same,"Plant response rating, Sugarbeets",sugar beet; [3],0
same,"Plant response rating, Sugarbeets",sugar beet; [4],0
same,Sugarbeets plant response rating,sugar beet; [5],0
same,Sugarbeets plant response rating,sugar beet; [6],0
same,Sugarbeets plant response rating,sugar beet; [7],0
same,Corn plant response rating,corn; [1],0
same,Corn plant response rating,corn; [2],0
same,"Plant response rating, Corn",corn; [3],0
same,"Plant response rating, Corn",corn; [4],0
same,Corn plant response rating,corn; [5],0
same,Corn plant response rating,corn; [6],0
same,Corn plant response rating,corn; [8],0
same,Corn plant response rating,corn; [7],0
same,Rice plant response rating,rice; [9],0
same,Rice plant response rating,rice; [10],0
same,Rice plant response rating,rice; [11],0
same,Ducksalad plant response rating,duck salad; [9],0
same,Ducksalad plant response rating,duck salad; [10],0
same,Ducksalad plant response rating,duck salad; [12],0
same,Ducksalad plant response rating,duck salad; [11],0
same,Wheat plant response rating,wheat; [1],0
same,Wheat plant response rating,wheat; [2],0
same,"Plant response rating, Wheat",wheat; [3],0
same,"Plant response rating, Wheat",wheat; [4],0
same,Wheat plant response rating,wheat; [5],0
same,Wheat plant response rating,wheat; [6],0
same,Wheat plant response rating,wheat; [7],0
same,Blackgrass plant response rating,blackgrass; [1],0
same,Blackgrass plant response rating,blackgrass; [2],0
same,"Plant response rating, Blackgrass",blackgrass; [3],0
same,"Plant response rating, Blackgrass",blackgrass; [4],0
same,Blackgrass plant response rating,blackgrass; [5],0
same,Blackgrass plant response rating,blackgrass; [6],0
same,Blackgrass plant response rating,blackgrass; [8],0
same,Blackgrass plant response rating,blackgrass; [7],0
same,Velvetleaf plant response rating,velvetleaf; [1],0
same,Velvetleaf plant response rating,velvetleaf; [2],0
same,"Plant response rating, Velvetleaf",velvetleaf; [3],0
same,"Plant response rating, Velvetleaf",velvetleaf; [4],0
same,Velvetleaf plant response rating,velvetleaf; [5],0
same,Velvetleaf plant response rating,velvetleaf; [6],0
same,Velvetleaf plant response rating,velvetleaf; [7],0
same,Barnyardgrass plant response rating,bamyardgrass; [9],0
same,Barnyardgrass plant response rating,bamyardgrass; [10],0
same,Barnyardgrass plant response rating,bamyardgrass; [12],0
same,Barnyardgrass plant response rating,bamyardgrass; [11],0
same,Nutsedge plant response rating,purple nutsedge; [1],0
same,Nutsedge plant response rating,purple nutsedge; [2],0
same,"Plant response rating, Nutsedge",purple nutsedge; [3],0
same,"Plant response rating, Nutsedge",purple nutsedge; [4],0
same,Nutsedge plant response rating,purple nutsedge; [5],0
same,Nutsedge plant response rating,purple nutsedge; [6],0
same,Nutsedge plant response rating,purple nutsedge; [7],0
same,Crabgrass plant response rating,crabgrass; [1],1
same,Crabgrass plant response rating,crabgrass; [2],4
same,"Plant response rating, Crabgrass",crabgrass; [3],0
same,"Plant response rating, Crabgrass",crabgrass; [4],0
same,Crabgrass plant response rating,crabgrass; [5],0
same,Crabgrass plant response rating,crabgrass; [6],1
same,Crabgrass plant response rating,crabgrass; [8],0
same,Crabgrass plant response rating,crabgrass; [7],0
same,Wild oats plant response rating,wild oat; [1],0
same,Wild oats plant response rating,wild oat; [2],0
same,"Plant response rating, Wild oats",wild oat; [3],0
same,"Plant response rating, Wild oats",wild oat; [4],0
same,Wild oats plant response rating,wild oat; [5],0
same,Wild oats plant response rating,wild oat; [6],0
same,Wild oats plant response rating,wild oat; [7],0
same,S. Flatsedge plant response rating,smallflower flatsedge; [9],0
same,S. Flatsedge plant response rating,smallflower flatsedge; [10],0
same,S. Flatsedge plant response rating,smallflower flatsedge; [11],0
same,Cocklebur plant response rating,cocklebur; [1],0
same,Cocklebur plant response rating,cocklebur; [2],0
same,"Plant response rating, Cocklebur",cocklebur; [3],0
same,"Plant response rating, Cocklebur",cocklebur; [4],0
same,Cocklebur plant response rating,cocklebur; [5],0
same,Cocklebur plant response rating,cocklebur; [6],0
same,Cocklebur plant response rating,cocklebur; [8],0
same,Cocklebur plant response rating,cocklebur; [7],0
same,Morningglory plant response rating,morningglory; [1],1
same,Morningglory plant response rating,morningglory; [2],1
same,"Plant response rating, Morningglory",morningglory; [3],0
same,"Plant response rating, Morningglory",morningglory; [4],0
same,Morningglory plant response rating,morningglory; [5],0
same,Morningglory plant response rating,morningglory; [6],0
same,Morningglory plant response rating,morningglory; [7],0
same,Rape plant response rating,rape; [1],0
same,Rape plant response rating,rape; [2],0
same,"Plant response rating, Rape",rape; [3],0
same,"Plant response rating, Rape",rape; [4],0
same,Rape plant response rating,rape; [5],0
same,Rape plant response rating,rape; [6],0
same,Rape plant response rating,rape; [7],0
same,Redroot pigweed plant response rating,pigweed; [1],0
same,Redroot pigweed plant response rating,pigweed; [2],0
same,"Plant response rating, Redroot pigweed",pigweed; [3],0
same,"Plant response rating, Redroot pigweed",pigweed; [4],0
same,Redroot pigweed plant response rating,pigweed; [5],0
same,Redroot pigweed plant response rating,pigweed; [6],4
same,Redroot pigweed plant response rating,pigweed; [7],0
